{"source": "PubChem BioAssay AID504661", "about": "(Broad Institute, 2011)", "system": "P. falciparum 3D7 ACP-GFP apicoplast imaging, 4 days", "assay": "loss of apicoplast ACP-GFP localization – imaging, 3D7 ACP-GFP strain, mechanism study for antimalarial project, late-stage follow-up (AID 504661)", "conditions": "stronger effect = higher value", "note": "The source made the active and inactive calls. How the calls were made is not given here."}
{"smiles": "C[C@@H]1CN([C@@H](C)COC(=O)C(C)(C)C)C(=O)c2cc(NC(=O)Nc3ccccc3)ccc2O[C@@H](C)CCCCO[C@H]1CN(C)S(=O)(=O)c1ccc(F)cc1", "values": [{"measurement": "apicoplast disruption", "setting": "at 16 nM", "result": "17.2% (inactive)"}]}
{"smiles": "COc1ccc(COC[C@H](C)N2C[C@@H](C)[C@H](CN(C)S(=O)(=O)c3ccc(F)cc3)OCCCC[C@H](C)Oc3ccc(NC(=O)Nc4ccccc4)cc3C2=O)cc1", "values": [{"measurement": "apicoplast disruption", "setting": "at 3.2 nM", "result": "16.1% (inactive)"}]}
{"smiles": "Cc1noc(C)c1NC(=O)Nc1ccc2c(c1)C(=O)N([C@@H](C)CO)C[C@@H](C)[C@H](CN(C)S(=O)(=O)c1ccc(F)cc1)OCCCC[C@H](C)O2", "values": [{"measurement": "apicoplast disruption", "setting": "at 2000 nM", "result": "21% (inactive)"}]}
{"smiles": "COCCOC(=O)N(C)C[C@@H]1OCCCC[C@H](C)Oc2ccc(NC(=O)Nc3ccccc3)cc2C(=O)N([C@@H](C)CO)C[C@H]1C", "values": [{"measurement": "apicoplast disruption", "setting": "at 50000 nM", "result": "13.7% (inactive)"}]}
